Publication PMC7419507, “In vitro Cas9-assisted editing of modular polyketide synthase genes to produce desired natural product derivatives” (Nature Communications, 2020)
“And” between values parts separate entries of the source, which are not always exact repeats. Identical values can stand only once.

Assays:
[1] = Cytotoxicity assay (CellTiter-Glo, 72 h), Jurkat; format: cell-based; settings: human, Jurkat cells (T lymphoma), raw data (replicates)
How it was run: (§1)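 Incubate 4 h at 37 °C, 5% CO2. Add 2-fold compound dilutions, 0.5% DMSO. After 72 h, read CellTiter-Glo luminescence.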

[2] = test system: T lymphoma Jurkat cells; test: Cytotoxicity assay (CellTiter-Glo, 72 h), Jurkat; format: cell-based; settings: raw data (replicates)
How it was run: as §1

[3] = Cytotoxicity assay (CellTiter-Glo, 72 h), SKOV-3; format: cell-based, human; settings: human, raw replicate data, read-out: SKOV3 viability (%)
How it was run: as §1

[4] = test system: human ovarian adenocarcinoma SKOV-3 cells; test: Cytotoxicity assay (CellTiter-Glo, 72 h), SKOV-3; format: cell-based; settings: raw replicate data
How it was run: as §1

[5] = Cytotoxicity assay (CellTiter-Glo, 72 h), MESO-1; format: cell-based; settings: human, MESO-1 malignant pleural mesothelioma cells, raw replicate data, read-out: MESO1 viability (%)
How it was run: as §1

[6] = test system: malignant pleural mesothelioma MESO-1 cells; test: Cytotoxicity assay (CellTiter-Glo, 72 h), MESO-1; format: cell-based; settings: raw replicate data
How it was run: as §1

[7] = test system: Jurkat, SKOV-3 and MESO-1 cells; test: Cytotoxicity assay, statements for all tested cell lines together; format: cell-based; settings: against the tested cell lines (Jurkat, SKOV-3, MESO-1)
How it was run: as §1

Structure (SMILES): CO[C@H]1C[C@@H]2CC[C@@H](C)[C@@](O)(O2)C(=O)C(=O)N2CCCC[C@H]2C(=O)O[C@H]([C@H](C)C[C@@H]2CC[C@@H](O)[C@H](OC)C2)CC(=O)[C@H](C)/C=C(\C)[C@@H](O)CC(=O)[C@H](C)C[C@H](C)/C=C/C=C(C)/C=C/1C [Compound 2, 27-demethoxy-19-methyl rapamycin]
- viability at 72 h, 9.53674e-05 uM ([1]; conc 9.53674e-5 uM): 101%
- viability at 72 h, 0.000190735 uM ([1]; conc 0.000190735 uM): 101%
- viability at 72 h, 0.00038147 uM ([1]; conc 0.00038147 uM): 105%
- viability at 72 h, 0.000762939 uM ([1]; conc 0.000762939 uM): 110%
- viability at 72 h, 0.00152588 uM ([1]; conc 0.00152588 uM): 104%
- viability at 72 h, 0.00305176 uM ([1]; conc 0.00305176 uM): 96%
- viability at 72 h, 0.00610352 uM ([1]; conc 0.00610352 uM): 102%
- viability at 72 h, 0.012207 uM ([1]; conc 0.012207 uM): 103%
- viability at 72 h, 0.0244141 uM ([1]; conc 0.0244141 uM): 98.4%
- viability at 72 h, 0.0488281 uM ([1]; conc 0.0488281 uM): 101%
- viability at 72 h, 0.0976562 uM ([1]; conc 0.0976562 uM): 98.8%
- viability at 72 h, 0.195312 uM ([1]; conc 0.195312 uM): 97.6%
- viability at 72 h, 0.390625 uM ([1]; conc 0.390625 uM): 103%
- viability at 72 h, 0.78125 uM ([1]; conc 0.78125 uM): 95.4%
- viability at 72 h, 1.5625 uM ([1]; conc 1.5625 uM): 97.9%
- viability at 72 h, 3.125 uM ([1]; conc 3.125 uM): 90.3%
- viability at 72 h, 6.25 uM ([1]; conc 6.25 uM): 93.3%
- viability at 72 h, 12.5 uM ([1]; conc 12.5 uM): 79.6%
- viability at 72 h, 25 uM ([1]; conc 25 uM): 26.4%
- viability at 72 h, 50 uM ([1]; conc 50 uM): 0.7%
- Jurkat viability (%) ([2]; conc 9.53674e-5 uM): 102.6% and 90.2%
- Jurkat viability (%) ([2]; conc 0.000190735 uM): 99.7% and 100.1%
- Jurkat viability (%) ([2]; conc 0.00038147 uM): 102.4% and 92.6%
- Jurkat viability (%) ([2]; conc 0.000762939 uM): 99.9% and 100.9%
- Jurkat viability (%) ([2]; conc 0.00152588 uM): 104.7% and 99.5%
- Jurkat viability (%) ([2]; conc 0.00305176 uM): 96.2% and 98.5%
- Jurkat viability (%) ([2]; conc 0.00610352 uM): 101.1%
- Jurkat viability (%) ([2]; conc 0.012207 uM): 91.7%
- Jurkat viability (%) ([2]; conc 0.0244141 uM): 102.1%
- Jurkat viability (%) ([2]; conc 0.0488281 uM): 95.8% and 99.2%
- Jurkat viability (%) ([2]; conc 0.0976562 uM): 102.7% and 105.1%
- Jurkat viability (%) ([2]; conc 0.195312 uM): 95.3% and 96.4%
- Jurkat viability (%) ([2]; conc 0.390625 uM): 104.4%
- Jurkat viability (%) ([2]; conc 0.78125 uM): 92.4% and 89.9%
- Jurkat viability (%) ([2]; conc 1.5625 uM): 98.7%
- Jurkat viability (%) ([2]; conc 3.125 uM): 91.9% and 84.9%
- Jurkat viability (%) ([2]; conc 6.25 uM): 85.7% and 88.3%
- Jurkat viability (%) ([2]; conc 12.5 uM): 78.8% and 80.3%
- Jurkat viability (%) ([2]; conc 25 uM): 27.8% and 28.9%
- viability at 72 h, 9.53674e-05 uM ([3]; SKOV-3 cells (ovarian adenocarcinoma), conc 9.53674e-5 uM): 94.7%
- viability at 72 h, 0.000190735 uM ([3]; SKOV-3 cells (ovarian adenocarcinoma), conc 0.000190735 uM): 95.8%
- viability at 72 h, 0.00038147 uM ([3]; SKOV-3 cells (ovarian adenocarcinoma), conc 0.00038147 uM): 97.8%
- viability at 72 h, 0.000762939 uM ([3]; SKOV-3 cells (ovarian adenocarcinoma), conc 0.000762939 uM): 98.5%
- viability at 72 h, 0.00152588 uM ([3]; SKOV-3 cells (ovarian adenocarcinoma), conc 0.00152588 uM): 106%
- viability at 72 h, 0.00305176 uM ([3]; SKOV-3 cells (ovarian adenocarcinoma), conc 0.00305176 uM): 97%
- viability at 72 h, 0.00610352 uM ([3]; SKOV-3 cells (ovarian adenocarcinoma), conc 0.00610352 uM): 105%
- viability at 72 h, 0.012207 uM ([3]; SKOV-3 cells (ovarian adenocarcinoma), conc 0.012207 uM): 90.8%
- viability at 72 h, 0.0244141 uM ([3]; SKOV-3 cells (ovarian adenocarcinoma), conc 0.0244141 uM): 96.5%
- viability at 72 h, 0.0488281 uM ([3]; SKOV-3 cells (ovarian adenocarcinoma), conc 0.0488281 uM): 96.1%
- viability at 72 h, 0.0976562 uM ([3]; SKOV-3 cells (ovarian adenocarcinoma), conc 0.0976562 uM): 97.7%
- viability at 72 h, 0.195312 uM ([3]; SKOV-3 cells (ovarian adenocarcinoma), conc 0.195312 uM): 97.9%
- viability at 72 h, 0.390625 uM ([3]; SKOV-3 cells (ovarian adenocarcinoma), conc 0.390625 uM): 98.8%
- viability at 72 h, 12.5 uM ([3]; SKOV-3 cells (ovarian adenocarcinoma), conc 12.5 uM): 91.2%
- viability at 72 h, 25 uM ([3]; SKOV-3 cells (ovarian adenocarcinoma), conc 25 uM): 100%
- viability at 72 h, 50 uM ([3]; SKOV-3 cells (ovarian adenocarcinoma), conc 50 uM): 20.5%
- viability at 72 h, 0.78125 uM ([3]; SKOV-3 ovarian adenocarcinoma cells, conc 0.78125 uM): 93.9%
- viability at 72 h, 1.5625 uM ([3]; SKOV-3 ovarian adenocarcinoma cells, conc 1.5625 uM): 95.7%
- viability at 72 h, 3.125 uM ([3]; SKOV-3 ovarian adenocarcinoma cells, conc 3.125 uM): 102%
- viability at 72 h, 6.25 uM ([3]; SKOV-3 ovarian adenocarcinoma cells, conc 6.25 uM): 102%
- SKOV3 viability (%) ([4]; conc 9.53674e-5 uM): 102.9% and 98.3%
- SKOV3 viability (%) ([4]; conc 0.000190735 uM): 104.0% and 97.1%
- SKOV3 viability (%) ([4]; conc 0.00038147 uM): 97.2% and 104.3%
- SKOV3 viability (%) ([4]; conc 0.000762939 uM): 101.6% and 95.9%
- SKOV3 viability (%) ([4]; conc 0.00152588 uM): 101.4% and 101.1%
- SKOV3 viability (%) ([4]; conc 0.00305176 uM): 96.6% and 99.8%
- SKOV3 viability (%) ([4]; conc 0.00610352 uM): 102.9% and 97.3%
- SKOV3 viability (%) ([4]; conc 0.012207 uM): 93.7%
- SKOV3 viability (%) ([4]; conc 0.0244141 uM): 96.2% and 94.8%
- SKOV3 viability (%) ([4]; conc 0.0488281 uM): 100.2% and 102.5%
- SKOV3 viability (%) ([4]; conc 0.0976562 uM): 99.8% and 96.7%
- SKOV3 viability (%) ([4]; conc 0.195312 uM): 94.3% and 95.1%
- SKOV3 viability (%) ([4]; conc 0.390625 uM): 99.5% and 95.3%
- SKOV3 viability (%) ([4]; conc 0.78125 uM): 97.2%
- SKOV3 viability (%) ([4]; conc 1.5625 uM): 98.7% and 99.8%
- SKOV3 viability (%) ([4]; conc 3.125 uM): 98.6% and 90.6%
- SKOV3 viability (%) ([4]; conc 6.25 uM): 97.2% and 96.7%
- SKOV3 viability (%) ([4]; conc 12.5 uM): 95.5% and 90.7%
- SKOV3 viability (%) ([4]; conc 25 uM): 97.5%
- SKOV3 viability (%) ([4]; conc 50 uM): 21.5% and 18.1%
- viability at 72 h, 9.53674e-05 uM ([5]; conc 9.53674e-5 uM): 101%
- viability at 72 h, 0.000190735 uM ([5]; conc 0.000190735 uM): 97.4%
- viability at 72 h, 0.00038147 uM ([5]; conc 0.00038147 uM): 96%
- viability at 72 h, 0.000762939 uM ([5]; conc 0.000762939 uM): 100%
- viability at 72 h, 0.00152588 uM ([5]; conc 0.00152588 uM): 97%
- viability at 72 h, 0.00305176 uM ([5]; conc 0.00305176 uM): 104%
- viability at 72 h, 0.00610352 uM ([5]; conc 0.00610352 uM): 105%
- viability at 72 h, 0.012207 uM ([5]; conc 0.012207 uM): 103%
- viability at 72 h, 0.0244141 uM ([5]; conc 0.0244141 uM): 103%
- viability at 72 h, 0.0488281 uM ([5]; conc 0.0488281 uM): 102%
- viability at 72 h, 0.0976562 uM ([5]; conc 0.0976562 uM): 107%
- viability at 72 h, 0.195312 uM ([5]; conc 0.195312 uM): 103%
- viability at 72 h, 0.390625 uM ([5]; conc 0.390625 uM): 109%
- viability at 72 h, 0.78125 uM ([5]; conc 0.78125 uM): 93.3%
- viability at 72 h, 1.5625 uM ([5]; conc 1.5625 uM): 99.9%
- viability at 72 h, 3.125 uM ([5]; conc 3.125 uM): 97.7%
- viability at 72 h, 6.25 uM ([5]; conc 6.25 uM): 97.3%
- viability at 72 h, 12.5 uM ([5]; conc 12.5 uM): 98%
- viability at 72 h, 25 uM ([5]; conc 25 uM): 84%
- viability at 72 h, 50 uM ([5]; conc 50 uM): 2.4%
- MESO1 viability (%) ([6]; conc 9.53674e-5 uM): 104.9%
- MESO1 viability (%) ([6]; conc 0.000190735 uM): 103.1% and 96.1%
- MESO1 viability (%) ([6]; conc 0.00038147 uM): 98.5% and 98.1%
- MESO1 viability (%) ([6]; conc 0.000762939 uM): 110.7% and 97.2%
- MESO1 viability (%) ([6]; conc 0.00152588 uM): 108.1% and 104.8%
- MESO1 viability (%) ([6]; conc 0.00305176 uM): 97.8% and 100.1%
- MESO1 viability (%) ([6]; conc 0.00610352 uM): 108.3% and 98.8%
- MESO1 viability (%) ([6]; conc 0.012207 uM): 101.9% and 99.1%
- MESO1 viability (%) ([6]; conc 0.0244141 uM): 104.7% and 100.7%
- MESO1 viability (%) ([6]; conc 0.0488281 uM): 104.5% and 103.1%
- MESO1 viability (%) ([6]; conc 0.0976562 uM): 98.7% and 102.0%
- MESO1 viability (%) ([6]; conc 0.195312 uM): 104.9% and 106.8%
- MESO1 viability (%) ([6]; conc 0.390625 uM): 97.6% and 96.8%
- MESO1 viability (%) ([6]; conc 0.78125 uM): 95.1% and 98.4%
- MESO1 viability (%) ([6]; conc 1.5625 uM): 99.0% and 101.9%
- MESO1 viability (%) ([6]; conc 3.125 uM): 94.6% and 96.8%
- MESO1 viability (%) ([6]; conc 6.25 uM): 96.9% and 103.3%
- MESO1 viability (%) ([6]; conc 12.5 uM): 98.9% and 92.4%
- MESO1 viability (%) ([6]; conc 25 uM): 86.3% and 80.9%
- MESO1 viability (%) ([6]; conc 50 uM): 1.2% and 1.3%
- Concentration at which cytotoxic activities were shown [7]: over 10 µM
